How the values were obtained:
[1] = system: blood from a patient suffering from leukemia; assay: separation of cells causing leukemia by intake of labeled amino acids; type: cell-based, human
Protocol: Descriptions are provided below for a case in which cells causing leukemia are separated by applying the technique in Example 3 for cell separation. NDB folic acid (Ex465/Em540), 4,4-difluoro-1,3,5,7-tetramethyl-4-bora-3a,4a-diaza-s-indacene-8-propionate labeled ASn, and 4,4-difluoro-5-(2-pyrrole)-4-bora-3a,4a-diaza-s-indacene-3-propionate labeled Thr are added to blood from a patient suffering from leukemia, and the mixture is incubated for 30 minutes at 37° C. Using the NDB folic acid (Ex465/Em540) as a control, the amounts of intaked 4,4-difluoro-3,5,7-tetramethyl-4-bora-3a,4a-diaza-s-indacene-8-propionate labeled ASn (Ex493/Em503) and intaked 4,4-difluoro-5-(2-pyrrole)-4-bora-3a,4a-diaza-s-indacene-3-propionate labeled Thr are measured by detecting the fluorescent intensities of various derivatives of 4,4-difluoro-4-bora-3a,4a-diaza-s-indacene against the fluorescence intensity generated by NDB-labeled folic acid, and cells having high fluorescence intensity with the fluorescence wavelength of around 503 nm, namely cells having a large intake amount of the 4,4-difluoro-1,3,5,7-tetramethyl-4-bora-3a,4a-diaza-s-indacene-8-propionate labeled ASn are sorted with a cell sorter.

[2] = system: cells from brain tissue pieces; assay: cell separation by cell permeability of NBD-labeled sugars, brain-derived cells; type: cell-based; conditions: 15 minutes at 37° C., 200 cells processed
Text: In Example 2 for cell separation, a case is described in which differences of cells are recognized by measuring differences in cell permeability of a plurality of substrates and then discrete cells are separated. In this example, cells are identified and separated by observing the cell permeability of galactose or fructose against the glucose described in the aforementioned document. Generally, glucose is often used as an energy source for cells, but galactose or fructose is not directly consumed. For instance, when Escherichia coli is cultured in a mixed culture medium of glucose and fructose, glucose is consumed at first, and then […] is consumed when glucose decreases. Therefore, for instance, by measuring cell permeability of various types of substrates using a quantity of intaked glucose as control data, cell separation reflecting the state of cell more accurately can be performed.
In this example, a glucose labeling derivative of 6-(N-(7-nitrobenz-2-oxa-1.3-diazol-4-yl)amino) sugar (Ex465/Em540) (NBD-labeled sugar) is used. […] The culture fluid is exchanged with that not containing the NBD-labeled sugar, and the sample is immediately added to a cell sorter independently developed by the inventors, and cells with the relative fluorescence intensity of 500 or more are separated.

[3] = system: cells from a lever tissue; assay: cell separation by cell permeability of NBD-labeled sugars, lever tissue cells; type: cell-based
[4] = system: neurocyte / pulsating myocardial cell; conditions: added to culture fluid of the neurocyte side only
Protocol: In Example 3, examination is made for whether a beat cycle of the pulsating myocardial cell 2-1 kept in the cell holding zone 2 changes when potassium or glucose, or suspected endocrine disrupter is added to the culture fluid of the neurocyte 3-2 in the cell holding zone 3, or the content is increased.
At first, the same culture fluid is filled in the culture fluid baths 21-1, 21-2, and a beat cycle of the pulsating myocardial cell 2-1 is checked to obtain a myocardial pulsation pattern showing the substantially same cycle as shown in FIG. 49(A).

4,4-difluoro-1,3,5,7-tetramethyl-4-bora-3a,4a-diaza-s-indacene-8-propionate labeled ASn
cancerous leukocytes among the sorted cells with large intake, histological examination ([1]; 30 minutes at 37° C., fluorescence around 503 nm, NDB folic acid as control): ≥ 95%

4,4-difluoro-5-(2-pyrrole)-4-bora-3a,4a-diaza-s-indacene-3-propionate labeled Thr
intake rate in normal cells against cancer cells ([1]; compared to labeled Asn): not so remarkable

O=[N+]([O-])c1ccc(NCC2OC(O)C(O)C(O)[C@@H]2O)c2nonc12 (some centres unmarked) [NBD-labeled glucose]
cells obtained with the relative fluorescence intensity of 500 or more [2]: 66 cells | cells obtained with the relative fluorescence intensity of 500 or more [3]: 46 cells

NCCc1ccc(O)c(O)c1 [dopamine, 2-dihydroxyphenylethylamine]
beat cycle of the pulsating myocardial cell [4]: disturbance in the beat cycle
